The target of one experiment is T1, AKT3 (Homo sapiens, UniProt Q9Y243).
T1 construct: purchased in-house thermal shift (DSF) kinase panel (SGC Frankfurt); Promega NanoBRET for AURKA/B/C
The experiment can be described thus: Thermal shift assay. The class given is binding. Conditions: read-out: ΔTm AKT3.

In another experiment the target is T2, CASK (Homo sapiens, UniProt O14936).
T2 construct: purchased in-house thermal shift (DSF) kinase panel (SGC Frankfurt); Promega NanoBRET for AURKA/B/C
T2 sequence (O14936 1-337): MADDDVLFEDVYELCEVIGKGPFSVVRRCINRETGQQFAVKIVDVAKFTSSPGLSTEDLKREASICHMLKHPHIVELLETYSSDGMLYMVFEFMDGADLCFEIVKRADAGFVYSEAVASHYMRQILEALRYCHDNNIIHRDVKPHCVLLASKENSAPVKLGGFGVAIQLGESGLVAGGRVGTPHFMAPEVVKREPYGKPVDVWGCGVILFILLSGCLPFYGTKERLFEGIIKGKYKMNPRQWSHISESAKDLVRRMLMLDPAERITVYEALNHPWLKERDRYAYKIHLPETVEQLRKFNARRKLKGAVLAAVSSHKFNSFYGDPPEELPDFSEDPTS
The experiment can be described thus: Thermal shift assay. The class given is binding. Conditions: read-out: ΔTm CASK.

A further experiment addresses T3, CDK2 (Homo sapiens, UniProt P24941).
T3 construct: purchased in-house thermal shift (DSF) kinase panel (SGC Frankfurt); Promega NanoBRET for AURKA/B/C
As to the kind of experiment: Thermal shift assay. In kind it is binding. The note with it: read-out: ΔTm CDK2.

A further experiment concerns the target T4, EPHA2 (Homo sapiens, UniProt P29317).
T4 construct: purchased in-house thermal shift (DSF) kinase panel (SGC Frankfurt); Promega NanoBRET for AURKA/B/C
T4 sequence (P29317 596-900): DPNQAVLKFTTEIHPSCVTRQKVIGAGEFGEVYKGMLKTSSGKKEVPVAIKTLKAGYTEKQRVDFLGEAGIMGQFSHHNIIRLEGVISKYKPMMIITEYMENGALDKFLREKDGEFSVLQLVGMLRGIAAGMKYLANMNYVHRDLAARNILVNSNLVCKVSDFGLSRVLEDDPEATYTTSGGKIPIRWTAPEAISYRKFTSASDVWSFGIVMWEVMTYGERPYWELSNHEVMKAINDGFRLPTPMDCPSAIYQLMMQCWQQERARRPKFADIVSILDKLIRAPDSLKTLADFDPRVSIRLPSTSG
As to the kind of experiment: Thermal shift assay. Conditions: read-out: ΔTm EPHA2. The class given is binding.

A further experiment addresses T5, FGFR2 (Homo sapiens, UniProt P21802).
T5 construct: purchased in-house thermal shift (DSF) kinase panel (SGC Frankfurt); Promega NanoBRET for AURKA/B/C
The experiment can be described thus: Thermal shift assay. Conditions: read-out: ΔTm FGFR2. The class given is binding.

For the next experiment, the target named is T6, CAMKK2 (Homo sapiens, UniProt Q96RR4).
T6 construct: purchased in-house thermal shift (DSF) kinase panel (SGC Frankfurt); Promega NanoBRET for AURKA/B/C
As to the kind of experiment: Thermal shift assay. In kind it is binding. Conditions: read-out: ΔTm CAMKK2.

A further experiment addresses T7, PAK1 (Homo sapiens, UniProt Q13153).
T7 construct: purchased in-house thermal shift (DSF) kinase panel (SGC Frankfurt); Promega NanoBRET for AURKA/B/C
The experiment can be described thus: Thermal shift assay. In kind it is binding. The note with it: read-out: ΔTm PAK1.

The target of a further experiment is T8, STK17A (Homo sapiens, UniProt Q9UEE5).
T8 construct: purchased in-house thermal shift (DSF) kinase panel (SGC Frankfurt); Promega NanoBRET for AURKA/B/C
T8 sequence (Q9UEE5 61-321): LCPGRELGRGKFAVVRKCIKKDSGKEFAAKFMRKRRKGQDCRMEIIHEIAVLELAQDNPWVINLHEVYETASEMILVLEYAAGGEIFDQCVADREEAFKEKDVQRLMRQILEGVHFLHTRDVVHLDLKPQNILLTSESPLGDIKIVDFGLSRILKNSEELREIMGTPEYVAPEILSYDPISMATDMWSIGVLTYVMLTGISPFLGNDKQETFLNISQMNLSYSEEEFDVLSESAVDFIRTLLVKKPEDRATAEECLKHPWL
The experiment can be described thus: Thermal shift assay. In kind it is binding. The note with it: read-out: ΔTm STK17A.

Another experiment has as its target T9, STK3 (Homo sapiens, UniProt Q13188).
T9 construct: purchased in-house thermal shift (DSF) kinase panel (SGC Frankfurt); Promega NanoBRET for AURKA/B/C
T9 sequence (Q13188 16-313): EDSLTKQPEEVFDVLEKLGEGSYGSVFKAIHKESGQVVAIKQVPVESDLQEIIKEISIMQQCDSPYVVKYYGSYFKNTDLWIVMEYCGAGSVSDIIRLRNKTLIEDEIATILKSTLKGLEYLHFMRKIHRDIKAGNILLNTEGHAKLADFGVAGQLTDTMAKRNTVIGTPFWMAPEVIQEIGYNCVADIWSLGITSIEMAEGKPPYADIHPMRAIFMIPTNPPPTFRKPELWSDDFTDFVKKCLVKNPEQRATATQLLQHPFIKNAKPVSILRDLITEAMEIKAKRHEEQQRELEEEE
As to the kind of experiment: Thermal shift assay. In kind it is binding. The note with it: read-out: ΔTm STK3.

For a further experiment, the target named is T10, STK39 (Homo sapiens, UniProt Q9UEW8).
T10 construct: purchased in-house thermal shift (DSF) kinase panel (SGC Frankfurt); Promega NanoBRET for AURKA/B/C
The experiment can be described thus: Thermal shift assay. In kind it is binding. The note with it: read-out: ΔTm STK39.

Another experiment deals with T11, STK26 (Homo sapiens, UniProt Q9P289).
T11 construct: purchased in-house thermal shift (DSF) kinase panel (SGC Frankfurt); Promega NanoBRET for AURKA/B/C
The experiment can be described thus: Thermal shift assay. The class given is binding. The note with it: read-out: ΔTm STK26.

A further experiment has as its target T12, AURKC (Homo sapiens, UniProt Q9UQB9).
T12 construct: full-length wild-type AURKA, AURKB, and AURKC were obtained as plasmids cloned in frame with a C-terminal NanoLuc-fusion; host or cells: HEK293T
T12 sequence (Q9UQB9 1-309): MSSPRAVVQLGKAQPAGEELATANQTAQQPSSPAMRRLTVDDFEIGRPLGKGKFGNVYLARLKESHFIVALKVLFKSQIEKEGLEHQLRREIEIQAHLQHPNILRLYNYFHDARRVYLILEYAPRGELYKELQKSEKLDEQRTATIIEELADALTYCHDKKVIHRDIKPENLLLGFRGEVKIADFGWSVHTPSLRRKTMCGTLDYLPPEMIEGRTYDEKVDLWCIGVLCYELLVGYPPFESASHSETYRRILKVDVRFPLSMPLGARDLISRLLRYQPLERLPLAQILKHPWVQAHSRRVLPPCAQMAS
As to the kind of experiment: NanoBRET assay in HEK293T cells. In kind it is cell-based.

For a further experiment, the target named is AURKB (Homo sapiens, UniProt Q96GD4). As to the kind of experiment: Thermal shift assay. The note with it: read-out: ΔTm AURKB. In kind it is binding. The arrangement: full-length wild-type AURKA, AURKB, and AURKC were obtained as plasmids cloned in frame with a C-terminal NanoLuc-fusion.
[1] abbreviates: NanoBRET, n = 2, mean, Figure 6B, read-out: affinity to intracellular AURKC.

Where two headings read alike, the source gives them in different places.

T7 sequence (Q13153 249-545): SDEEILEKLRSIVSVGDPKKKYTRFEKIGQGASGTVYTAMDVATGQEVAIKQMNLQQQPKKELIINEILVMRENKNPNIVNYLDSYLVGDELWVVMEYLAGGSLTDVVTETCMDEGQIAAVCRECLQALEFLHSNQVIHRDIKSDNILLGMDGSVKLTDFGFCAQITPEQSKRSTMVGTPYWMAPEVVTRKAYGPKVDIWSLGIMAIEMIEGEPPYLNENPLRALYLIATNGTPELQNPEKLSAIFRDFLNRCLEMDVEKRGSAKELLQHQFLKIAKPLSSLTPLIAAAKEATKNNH
T1 sequence (Q9Y243 148-479): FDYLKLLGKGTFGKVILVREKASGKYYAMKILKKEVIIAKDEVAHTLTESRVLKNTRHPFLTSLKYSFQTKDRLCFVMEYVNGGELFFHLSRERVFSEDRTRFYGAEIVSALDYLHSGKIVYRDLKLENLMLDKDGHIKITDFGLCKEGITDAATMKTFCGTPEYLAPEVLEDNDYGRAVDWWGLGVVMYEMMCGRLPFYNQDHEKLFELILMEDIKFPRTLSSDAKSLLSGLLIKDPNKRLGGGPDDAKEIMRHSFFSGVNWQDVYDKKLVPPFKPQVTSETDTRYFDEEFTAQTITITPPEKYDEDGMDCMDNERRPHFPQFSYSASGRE
T11 sequence (Q9P289 1-300): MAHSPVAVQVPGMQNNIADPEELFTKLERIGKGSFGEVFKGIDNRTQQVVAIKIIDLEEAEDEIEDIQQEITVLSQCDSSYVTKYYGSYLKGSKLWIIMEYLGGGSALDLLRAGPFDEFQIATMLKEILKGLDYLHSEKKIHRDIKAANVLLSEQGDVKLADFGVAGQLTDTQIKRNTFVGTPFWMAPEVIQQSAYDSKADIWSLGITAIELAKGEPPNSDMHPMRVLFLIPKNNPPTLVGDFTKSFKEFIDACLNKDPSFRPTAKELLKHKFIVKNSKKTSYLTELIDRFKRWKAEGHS
T6 sequence (Q96RR4 161-449): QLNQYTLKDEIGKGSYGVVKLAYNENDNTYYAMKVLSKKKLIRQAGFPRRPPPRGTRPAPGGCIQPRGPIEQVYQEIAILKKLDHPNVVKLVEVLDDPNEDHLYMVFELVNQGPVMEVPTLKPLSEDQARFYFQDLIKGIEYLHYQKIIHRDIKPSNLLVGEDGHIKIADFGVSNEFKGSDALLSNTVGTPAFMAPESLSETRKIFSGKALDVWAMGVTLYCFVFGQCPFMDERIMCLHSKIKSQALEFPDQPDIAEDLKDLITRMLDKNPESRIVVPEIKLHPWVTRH
Chain of AURKB (Q96GD4 whole entry, the tested form may be a part): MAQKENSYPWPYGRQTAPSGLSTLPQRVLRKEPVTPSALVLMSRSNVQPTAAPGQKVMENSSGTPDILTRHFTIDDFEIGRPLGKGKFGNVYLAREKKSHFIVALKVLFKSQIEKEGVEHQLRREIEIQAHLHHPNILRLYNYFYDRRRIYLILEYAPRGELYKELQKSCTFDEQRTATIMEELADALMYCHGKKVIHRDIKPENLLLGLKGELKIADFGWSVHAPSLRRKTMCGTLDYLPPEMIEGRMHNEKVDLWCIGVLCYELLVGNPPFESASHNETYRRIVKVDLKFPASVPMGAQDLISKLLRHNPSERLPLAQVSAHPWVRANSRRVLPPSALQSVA
T5 sequence (P21802 458-768): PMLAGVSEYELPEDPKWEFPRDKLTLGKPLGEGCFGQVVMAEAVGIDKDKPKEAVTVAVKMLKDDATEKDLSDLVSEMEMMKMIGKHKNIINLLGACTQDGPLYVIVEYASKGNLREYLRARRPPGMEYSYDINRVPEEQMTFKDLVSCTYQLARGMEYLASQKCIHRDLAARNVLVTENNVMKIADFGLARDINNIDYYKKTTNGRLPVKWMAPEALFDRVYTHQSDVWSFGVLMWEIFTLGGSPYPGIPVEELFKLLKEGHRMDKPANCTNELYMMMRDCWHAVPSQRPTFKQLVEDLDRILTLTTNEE

Consider `CCN1CCN(C(=O)Cc2ccc(Nc3ncc(F)c(Nc4ccc(C(=O)Nc5ccccc5Cl)cc4)n3)cc2)CC1` [Aurora-A inhibitor I, reference compound], for which the ΔTm at 10 µM at AKT3 is 0.2 °C; on CASK, 0.2 °C; at CDK2, 1.4 °C; on EPHA2, 1.4 °C; at FGFR2, 2.5 °C; on CAMKK2 it was 2.3 °C. Moreover, the ΔTm at 10 µM on PAK1 is 0.5 °C; at STK17A, 1.9 °C; on STK3, 2.6 °C; at STK39 it was 2.4 °C; at STK26, 0.6 °C; at AURKB it was -0.5 °C. This compound also showed an IC50 against AURKC above 50 µM.

Turning to `CCN1CCN(C(=O)Cc2ccc(Nc3ncc(F)c(Nc4ccc(C(=O)O)cc4)n3)cc2)CC1` [ERJ2-12], the shift in melting temperature (ΔTm) at 10 µM is -0.1 °C at AKT3 (compound 10 µM, n = 3); 0 °C on CASK (compound 10 µM, n = 3); 0.4 °C on CDK2 (compound 10 µM, n = 3); 1.6 °C at EPHA2 (compound 10 µM, n = 3); 2.9 °C at FGFR2 (compound 10 µM, n = 3); 1.8 °C on CAMKK2 (compound 10 µM, n = 3). The ΔTm at 10 µM was 0.2 °C on PAK1 (compound 10 µM, n = 3); 0.4 °C on STK17A (compound 10 µM, n = 3); 0.1 °C on STK3 (compound 10 µM, n = 3); 0.2 °C on STK39 (compound 10 µM, n = 3); -0.2 °C on STK26 (compound 10 µM, n = 3); -2.5 °C at AURKB (compound 10 µM, n = 3). Further, at AURKC (NanoBRET, n = 2, Figure 6B, bounds, read-out: affinity to intracellular AURKC), the IC50 was above 50 µM.

As to `CCN1CCN(C(=O)Cc2ccc(Nc3ncc(F)c(Nc4ccc(C(=O)Nc5ccccc5)cc4)n3)cc2)CC1` [ERJ2-11], the thermal shift (ΔTm) at 10 µM was 0.1 °C at AKT3 (compound 10 µM, n = 3); -0.1 °C on CASK (compound 10 µM, n = 3); 2.6 °C at CDK2 (compound 10 µM, n = 3); 1.8 °C at EPHA2 (compound 10 µM, n = 3); 2.9 °C at FGFR2 (compound 10 µM, n = 3); 3.1 °C at CAMKK2 (compound 10 µM, n = 3). The ΔTm at 10 µM is 0.5 °C at PAK1 (compound 10 µM, n = 3); 1.8 °C on STK17A (compound 10 µM, n = 3); 2 °C at STK3 (compound 10 µM, n = 3); 2.6 °C on STK39 (compound 10 µM, n = 3); 1.3 °C at STK26 (compound 10 µM, n = 3); -0.2 °C at AURKB (compound 10 µM, n = 3). The IC50 on AURKC (setting [1]) amounted to 46 µM.

In the case of `O=C(Cc1ccc(Nc2ncc(F)c(Nc3ccc(C(=O)Nc4ccccc4Cl)cc3)n2)cc1)NCCN1CCOCC1` [ERJ2-04], the ΔTm at 10 µM at AKT3 (compound 10 µM, n = 3) was -0.1 °C; on CASK (compound 10 µM, n = 3), 0.1 °C; at CDK2 (compound 10 µM, n = 3) it was 0.7 °C; on EPHA2 (compound 10 µM, n = 3), 0.3 °C; at FGFR2 (compound 10 µM, n = 3) it was 1.5 °C; on CAMKK2 (compound 10 µM, n = 3), 1.3 °C. The ΔTm at 10 µM was 0.6 °C at PAK1 (compound 10 µM, n = 3); 1.4 °C on STK17A (compound 10 µM, n = 3); 1.3 °C at STK3 (compound 10 µM, n = 3); 2.1 °C on STK39 (compound 10 µM, n = 3); 0.4 °C on STK26 (compound 10 µM, n = 3); -0.8 °C on AURKB (compound 10 µM, n = 3). The IC50 at AURKC (setting [1]) turned out to be 44.5 µM.

Consider `NC(=O)Cc1ccc(Nc2ncc(F)c(Nc3ccc(C(=O)Nc4ccccc4Cl)cc3)n2)cc1` [ERJ2-06], for which the ΔTm at 10 µM worked out at 0.1 °C on AKT3 (compound 10 µM, n = 3); 0.1 °C on CASK (compound 10 µM, n = 3); 4.1 °C at CDK2 (compound 10 µM, n = 3); 0.8 °C on EPHA2 (compound 10 µM, n = 3); 2.4 °C at FGFR2 (compound 10 µM, n = 3); 2.2 °C at CAMKK2 (compound 10 µM, n = 3). Besides, the thermal shift (ΔTm) at 10 µM is 0.7 °C on PAK1 (compound 10 µM, n = 3); 2.2 °C on STK17A (compound 10 µM, n = 3); 3.1 °C on STK3 (compound 10 µM, n = 3); 2.4 °C on STK39 (compound 10 µM, n = 3); 1.7 °C at STK26 (compound 10 µM, n = 3); 0.5 °C at AURKB (compound 10 µM, n = 3). The IC50 on AURKC (setting [1]) amounted to 12 µM.

For the origin of these results see paper PMC8776063, “Aurora Kinase A Is Involved in Controlling the Localization of Aquaporin-2 in Renal Principal Cells” (International Journal of Molecular Sciences, 2022).
